The results in this text go back to patent publication US9188595B2, “Alzheimer's disease diagnosis based on mitogen-activated protein kinase phosphorylation” (Blanchett Rockefeller Neurosciences Institute, priority 2001, dated 2015).

One assay deals with Erk1/2. Put plainly: BK-stimulated Erk1/2 phosphorylation in skin fibroblasts (Western blot, normalized to total Erk1/2). To be noted: 10 nM BK 5 min. The format is cell-based, human. The procedure: Banked AC and AD fibroblasts were grown to 80-100% confluence before they were “starved” in a serum-free DMEM overnight. Cells were treated with 10 nM BK at 37° C. for different intervals to establish a time course for BK effects. The same volume of PBS was added to a control flask of cells of each line. The reaction was terminated by removing the medium, rapidly rinsing the cells with pre-cooled PBS, pH 7.4, and transferring the flask onto dry ice/ethanol.
(§1) For inhibition studies, cells were preincubated with the following concentration of inhibitor at 37° C. for the intervals indicated: 2ABP (50 μM for 30 min); PP1 (10 μM for 15 min); Ly294002 (5 μM for 15 min); and BiSM-1 (5 μM for 15 min). A parallel control flask was incubated with an identical volume of DMSO vehicle. At the end of this incubation, the same inhibitor at the indicated concentration was added and followed immediately by BK to a final concentration of 10 nM. BK (10 nM) was also added to DMSO controls. Basal controls were cells to which neither BK nor inhibitors were added. After a 5-min incubation at 37° C., the reaction was terminated as above.
Cell lysates were prepared from cells of the various groups. Flasks were moved from dry ice/ethanol to ice water. Each flask received 1 ml of lysis buffer (10 mM Tris pH 7.4, 150 mM NaCl, 1 mM EDTA, 1 mM EGTA, pH 8, 0.5% NP-40, 1% Triton X-100, 1% protease inhibitor cocktail (Sigma), 1% cocktail of serine/threonine (Ser/Thr) phosphatase inhibitor and tyrosine (Tyr) phosphatase inhibitor (Sigma). After rocking on an end-to-end shaker in a cold room for 30 min, cells were collected from each flask with a cell scraper. […]
Cell lysates were boiled in an equal volume of 2× SDS-sample buffer for 10 min. […] Phosphorylated Erk1/2 was detected with anti-phospho-Erk1/2 antibody using the SuperSignal ECL detection kit. […]
Signals from phosphorylated and nonphosphorylated Erk1/2 (or CREB) were scanned with a Fuji film LAS-1000 Plus scanner. The mean optical density of each protein band was measured using NIH Image software. […]

In a further assay the test system is CREB. Put plainly: BK-stimulated CREB phosphorylation (Ser133) and total CREB in skin fibroblasts (Western blot). Conditions: 10 nM BK 10 min; for Effect on expression of the CREB protein: 10 μM for 15 min. The class given is cell-based, human. The procedure:
FIGS. 5A, 5B1, 5B2, 5C1 and 5C2. Changes in phosphorylation of, and amounts of CREB after BK stimulation. AC and AD cells were treated with 10 nM BK for 5 or 10 min. Phosphorylated CREB (P-CREB) was measured using a anti-phospho-CREB-Serl33 antibody on Western blots. The mean densities of P-CREB were normalized against the total amount of CREB measured using an anti-“regular CREB” antibody and subjected to statistic analyses.
FIGS. 6A1, 6A2, 6B1, 6B2, 6C1 and 6C2. Effects of different inhibitors on BK-stimulated phosphorylation of CREB. AC and AD cells were preincubated at 37° C. for 15 min with 5 μM BiSM-1 (FIG. 6A), 10 μM PP1 (FIG. 6B), or 5 μM Ly294002 (FIG. 6C) before incubation with 10 nM BK for 10 min Nointalization was performed as with FIGS. 5A-5C and statistical significance of differences were evaluated by 2-way ANOVA. **p<0.0001; *p<0.05.
as §1
CREB was detected using analogous methods.
Signals from phosphorylated and nonphosphorylated Erk1/2 (or CREB) were scanned with a Fuji film LAS-1000 Plus scanner. The mean optical density of each protein band was measured using NIH Image software. Values from the phosph-Erk1/2 signals were normalized respectively against the total signal of Erk1/2. After normalization, data from treated cells was converted to a percentage of the basal control and subjected to statistical analyses.

Where [1] appears, read: AC and AD cells, preincubation 10 μM for 15 min.

On to `O=c1cc(N2CCOCC2)oc2c(-c3ccccc3)cccc12` [LY294002], for which the “Effect on BK-induced Erk1/2 phosphorylation” value with Erk1/2 (AD cells, preincubation 5 μM for 15 min) is listed as “failed to inhibit”.

With `Cc1ccc(-c2nn(C(C)(C)C)c3ncnc(N)c23)cc1` [PP1], in the assay with Erk1/2 (setting [1]), the “Effect on BK-induced Erk1/2 phosphorylation” value is “completely inhibited”. The “Effect on BK-stimulated CREB phosphorylation” value in the assay on CREB (setting [1]) is recorded as “inhibited”. Besides, the “Effect on expression of the CREB protein” value in the assay on CREB (AD cells) was “not observed”; in the assay with CREB (control (AC) cells) it was “increased expression of the CREB protein”.

In the case of `CN(C)CCCn1cc(C2=C(c3c[nH]c4ccccc34)C(=O)NC2=O)c2ccccc21` [BiSM-1, bisindolylmaleimide-1], the “Effect on BK-induced phosphorylation of Erk1/2” value in the assay on Erk1/2 (both AC and AD cells, preincubation 5 μM for 15 min) is reported as “abolished”. For the same compound, in the assay on CREB (AC and AD cells (no group effect), preincubation 5 μM for 15 min), the “Effect on BK-stimulated CREB phosphorylation” value is “completely abolished”.
